Structures are written as SMILES. Where “and” joins values, the source holds several entries; their conditions need not be identical. Identical values can stand only once. Toxic doses and inconclusive results are not listed.

This is an account of results in PubChem BioAssay AID330 (DTP/NCI, 2004).

The test concerns P388 leukemia ip, CD2F1 mice, survival T/C. The test is described as follows: NCI In Vivo Anticancer Drug Screen. Data for tumor model P388 Leukemia (intraperitoneal) in CD2F1 (CDF1) mice. The following applies: endpoint: median survival time, higher = longer survival. The method in brief: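 Mice carrying the transplanted tumor received test compound or vehicle. Survival was recorded in each group, and the value is the treated-group measurement divided by that of the vehicle-treated control group.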

The mark [1] stands for this setting: dose: 100.0 mg/kg/injection, schedule: Q01DX001 (ip), vehicle: Klucel (hydroxypropylcellulose) (HPC).
[2] abbreviates: dose: 200.0 mg/kg/injection, schedule: Q01DX001 (ip), vehicle: Klucel (hydroxypropylcellulose) (HPC).
[3] abbreviates: dose: 50.0 mg/kg/injection, schedule: Q01DX005 (ip), vehicle: saline with Tween-80.
Setting [4] is: dose: 100.0 mg/kg/injection, schedule: Q01DX005 (ip), vehicle: saline with Tween-80.
The mark [5] stands for this setting: dose: 200.0 mg/kg/injection, schedule: Q01DX005 (ip), vehicle: saline with Tween-80.
Setting [6] is: dose: 50.0 mg/kg/injection, schedule: Q01DX009 (ip), vehicle: saline.
[7] abbreviates: dose: 50.0 mg/kg/injection, schedule: Q01DX005 (ip), vehicle: Klucel (hydroxypropylcellulose) (HPC).
[8] abbreviates: dose: 100.0 mg/kg/injection, schedule: Q01DX005 (ip), vehicle: Klucel (hydroxypropylcellulose) (HPC).
The mark [9] stands for this setting: dose: 200.0 mg/kg/injection, schedule: Q01DX005 (ip), vehicle: Klucel (hydroxypropylcellulose) (HPC).
[10] abbreviates: dose: 60.0 mg/kg/injection, schedule: Q01DX005 (ip), vehicle: saline with Tween-80.
[11] abbreviates: dose: 120.0 mg/kg/injection, schedule: Q01DX005 (ip), vehicle: saline with Tween-80.
[12] abbreviates: dose: 240.0 mg/kg/injection, schedule: Q01DX005 (ip), vehicle: saline with Tween-80.
Where [13] appears, read: dose: 100.0 mg/kg/injection, schedule: Q01DX009 (ip), vehicle: saline with Tween-80.
The mark [14] stands for this setting: dose: 50.0 mg/kg/injection, schedule: Q01DX009 (ip), vehicle: saline with Tween-80.
The mark [15] stands for this setting: dose: 200.0 mg/kg/injection, schedule: Q01DX009 (ip), vehicle: saline with Tween-80.

Consider `CCC(=O)[O-].CCC(=O)[O-].CCC(=O)[O-].CCC(=O)[O-].O=S(=O)(O)O.[Re].[Re]`, for which the T/C is 107 % of control (dose: 72.0 mg/kg/injection, schedule: Q01DX009 (ip), vehicle: saline); 100 % of control (dose: 103.0 mg/kg/injection, schedule: Q01DX009 (ip), vehicle: saline); 102 % of control (dose: 147.0 mg/kg/injection, schedule: Q01DX009 (ip), vehicle: saline); 109 % of control (dose: 171.5 mg/kg/injection, schedule: Q01DX009 (ip), vehicle: suspension in saline); 108 % of control (dose: 210.0 mg/kg/injection, schedule: Q01DX009 (ip), vehicle: saline); 120 % of control (dose: 245.0 mg/kg/injection, schedule: Q01DX009 (ip), vehicle: suspension in saline). Moreover, the T/C (dose: 300.0 mg/kg/injection, schedule: Q01DX009 (ip), vehicle: saline) was 91 % of control.

Regarding `CCOC(=O)CC1Cc2ccc3ccc(O)cc3c2C1=O` (stereo not given), the T/C is 94 % of control (dose: 12.5 mg/kg/injection, schedule: Q01DX009 (ip), vehicle: distilled water + Tween-80); 95 % of control (dose: 25.0 mg/kg/injection, schedule: Q01DX009 (ip), vehicle: distilled water + Tween-80); 92 % of control (dose: 50.0 mg/kg/injection, schedule: Q01DX009 (ip), vehicle: distilled water + Tween-80); 86 % of control (dose: 100.0 mg/kg/injection, schedule: Q01DX009 (ip), vehicle: distilled water + Tween-80); 92 % of control (dose: 200.0 mg/kg/injection, schedule: Q01DX009 (ip), vehicle: distilled water + Tween-80).

Consider `Cc1c2c(c(C)c3ccccc13)C(O)C(O)c1ccccc1-2` (stereo not given), for which the T/C runs as follows: under setting [1], 91 % of control; under setting [2], 91 % of control; (dose: 400.0 mg/kg/injection, schedule: Q01DX001 (ip), vehicle: Klucel (hydroxypropylcellulose) (HPC)) 99 % of control.

As to `CCC1(O)CC(OC2CC(O)C(O)CO2)c2c(O)c3c(c(O)c2C1C(=O)OC)C(=O)c1cccc(O)c1C3=O` (stereo not given), the T/C reads like this: (dose: 1.56 mg/kg/injection, schedule: Q01DX009 (ip), vehicle: other) 90 % of control; (dose: 3.13 mg/kg/injection, schedule: Q01DX009 (ip), vehicle: other) 88 % of control; (dose: 6.25 mg/kg/injection, schedule: Q01DX009 (ip), vehicle: other) 101 % of control; (dose: 12.5 mg/kg/injection, schedule: Q01DX009 (ip), vehicle: other) 115 % of control; (dose: 25.0 mg/kg/injection, schedule: Q01DX009 (ip), vehicle: other) 92 % of control.

In the case of `Cn1cccc1/C=N/N1CC(=O)N(c2ccc(Cl)cc2)CC1=O`, the T/C under setting [3] was 110 % of control, the T/C under setting [4] was 106 % of control and the T/C under setting [5] was 88 % of control.

Turning to `CC(C)(CCN)c1cc(CC(C)(C)C2(C)OCCO2)no1`, the T/C reads like this: under setting [3], 113 % of control; under setting [4], 108 % of control; under setting [5], 113 % of control.

Regarding `COc1cccc2c1C(=N)c1c(O)c3c(c(O)c1C2=O)CC(O)(C(C)=O)CC3OC1CC(N(Cc2ccccc2)Cc2ccccc2)C(O)C(C)O1` (stereo not given), the T/C runs as follows: (dose: 4.69 mg/kg/injection, schedule: Q04DX003 (ip), vehicle: distilled water + Tween-80) 101 % of control; (dose: 9.38 mg/kg/injection, schedule: Q04DX003 (ip), vehicle: distilled water + Tween-80) 102 % of control; (dose: 18.75 mg/kg/injection, schedule: Q04DX003 (ip), vehicle: distilled water + Tween-80) 100 % of control; (dose: 37.5 mg/kg/injection, schedule: Q04DX003 (ip), vehicle: distilled water + Tween-80) 96 % of control; (dose: 75.0 mg/kg/injection, schedule: Q04DX003 (ip), vehicle: distilled water + Tween-80) 101 % of control; (dose: 150.0 mg/kg/injection, schedule: Q04DX003 (ip), vehicle: distilled water + Tween-80) 108 % of control.

Consider `CCCNC(=S)N/N=C(/C)CC/C(C)=N/NC(=S)NCCC`, for which the T/C by setting is: (dose: 12.5 mg/kg/injection, schedule: Q01DX009 (ip), vehicle: saline) 98 % of control; (dose: 25.0 mg/kg/injection, schedule: Q01DX009 (ip), vehicle: saline) 99 % of control; under setting [6], 104 % of control and 86 % of control.

Turning to `CCOC(=O)C(C)(C)Br`, the T/C is 105 % of control (dose: 100.0 mg/kg/injection, schedule: Q01DX009 (ip), vehicle: saline sonified); 105 % of control (dose: 200.0 mg/kg/injection, schedule: Q01DX009 (ip), vehicle: saline sonified); 115 % of control (dose: 400.0 mg/kg/injection, schedule: Q01DX009 (ip), vehicle: saline sonified).

For `COC(=O)C1C(O)CCC2CN3CCc4c([nH]c5cccc(OC)c45)C3CC21` (stereo not given), the T/C is 104 % of control (dose: 25.0 mg/kg/injection, schedule: Q01DX005 (ip), vehicle: Klucel (hydroxypropylcellulose) (HPC)); 105 % of control under setting [7]; 104 % of control under setting [8]; 101 % of control under setting [9].

As to `CC(Sc1ncnc2[nH]ncc12)C(N)=O` (stereo not given), the T/C under setting [10] was 97 % of control, the T/C under setting [11] was 97 % of control and the T/C under setting [12] was 118 % of control.

For the molecule `Cn1ccc(=O)n(C)c1=O`, the T/C is 107 % of control (dose: 100.0 mg/kg/injection, schedule: Q04DX002 (ip), vehicle: saline); 107 % of control (dose: 200.0 mg/kg/injection, schedule: Q04DX002 (ip), vehicle: saline); 109 % of control (dose: 400.0 mg/kg/injection, schedule: Q04DX002 (ip), vehicle: saline).

As to `CC(=O)OC1OC(COS(C)(=O)=O)C(OC(C)=O)C(OS(C)(=O)=O)C1OC(C)=O` (stereo not given), the T/C under setting [6] was 92 % of control; the T/C (dose: 100.0 mg/kg/injection, schedule: Q01DX009 (ip), vehicle: saline) is 118 % of control; the T/C (dose: 400.0 mg/kg/injection, schedule: Q01DX009 (ip), vehicle: saline) is 88 % of control.

Regarding `COC1=CC(=O)c2cc3ccc(OC)c(N)c3nc2C1=O`, the T/C is, setting by setting: under setting [1], 100 % of control; under setting [2], 102 % of control.

Turning to `CC1(C)N=C(N)N=C(N)N1c1cccc(CNC(=O)Nc2cccc(S(=O)(=O)F)c2)c1`, the T/C is, setting by setting: (dose: 44.0 mg/kg/injection, schedule: Q01DX009 (ip), vehicle: saline with Tween-80) 159 % of control; under setting [6], 163 % of control; (dose: 67.0 mg/kg/injection, schedule: Q01DX009 (ip), vehicle: saline with Tween-80) 163 % of control; under setting [13], 168 % of control.

Turning to `CSc1nc(NC2OC(CO)C(O)C(O)C2O)c(C=O)c(=O)n1C` (stereo not given), the T/C runs as follows: under setting [10], 100 % of control; under setting [11], 92 % of control; under setting [12], 91 % of control.

For the molecule `OC1(C(O)(c2ccc(-c3ccccc3)cc2)c2ccc(-c3ccccc3)cc2)CC=CCC1` (stereo not given), the T/C under setting [10] was 105 % of control, the T/C under setting [11] is 92 % of control and the T/C under setting [12] was 90 % of control.

As to `CCN(CC)CCC(CNc1c2ccc(Cl)cc2nc2ccc(OC)cc12)c1ccccc1` (stereo not given), the T/C runs as follows: (dose: 12.5 mg/kg/injection, schedule: Q01DX005 (ip), vehicle: saline with Tween-80) 98 % of control; (dose: 25.0 mg/kg/injection, schedule: Q01DX005 (ip), vehicle: saline with Tween-80) 100 % of control; under setting [3], 108 % of control and 115 % of control.

Regarding `CC1=NN(C(=O)c2ccncc2)C(=O)C1N=Nc1ccc(S(=O)(=O)Nc2ccccn2)cc1` (stereo not given), the T/C was 92 % of control under setting [14], 90 % of control under setting [13] and 103 % of control under setting [15].

With `Cc1ccc(NC(=O)Oc2ccc(F)cc2)c([N+](=O)[O-])c1`, the T/C was 96 % of control under setting [14], 95 % of control under setting [13] and 88 % of control under setting [15].

Consider `O=C1NC(O)c2cc(Cl)ccc2O1` (stereo not given), for which the T/C was 96 % of control under setting [7], 97 % of control under setting [8] and 96 % of control under setting [9].
